From US4496735A, “Certain pyridyloxy-or-thio-phenyl propenoic acid derivatives” (Maruko Seiyaku Co., Ltd., priority 1982, dated 1985) come the findings set out here.

By LD50 is commonly meant the dose expected to kill half of the subjects tested. The term IC50 denotes the concentration needed to halve the response being measured.

The test system of data set [1] is Arachidonic Acid-Induced Sudden Death. Put plainly: Effect on Arachidonic Acid-Induced Sudden Death in Rabbit. It counts as in vivo, male rabbits. The note with it: for % Protection / Ratio of Mortality/Total Number: 20 mg/kg i.p. 2 hours before 1.4 mg/kg sodium arachidonate (ear vein); for % Protection: 30 minutes; for Ratio of Mortality/Total Number: mortality at 30 minutes; for protection against the arachidonic acid-induced sudden death in rabbits (in words): conclusion in words. An excerpt:
The compounds of the present invention having the formula (I) and the pharmaceutically acceptable salts thereof thus obtained have a strong inhibitory activity on thromboxane A2 synthetase. A typical in vivo test method for evaluating compounds which may be useful as a so-called anti-thrombotic agent has been reported in literature and this method comprises determining the prevention of sudden death of rabbits caused by arachidonic acid, as reported in, for example, Agents and Actions, 7, 481 (1977); Pharmacology, 14, 522 (1976); Science, 183, 1085 (1974), etc.
More specifically, sodium arachidonate is administered intravenously to rabbits at a dose of about 1.4 mg/kg to cause a sudden death within a few minutes due to platelet aggregation and lung embolus.
According to the method of Silver et al [Science, 183, 1085 (1974)], 20 mg/kg of the test compound was administered intraperitoneally into male rabbits (8 or 10 rabbits per group), each weighing 2.2 to 2.8 kg, and 2 hours after the administration 1.4 mg/kg of sodium arachidonate was administered to the rabbit from an ear vein. The mortality of the rabbits was then calculated 30 minutes after the administration of sodium arachidonate.

Data set [2] relates to ddY male mice. In words: Acute Toxicity. The class given is in vivo. The note with it: i.p., mortality one week after administration, Behrens-Karber method, 10080 min. How it is done: (§1) The test compound was administered intraperitoneally to ddY male mice weighing 22 to 24 g and LD50 was determined by the Behrens-Karber method [Arch. exp. Path. Pharmak., 177, 379 (1935)] from the mortality one week after administration.

Data set [3] relates to thromboxane A2 synthesis (thromboxane A2 synthetase). In words: Inhibition of Thromboxane A2 Synthesis (collagen-stimulated rabbit platelet-rich plasma, thromboxane B2 by radioimmunoassay). It counts as cell-based. The following applies: Oryctolagus cuniculus, 5 min, read-out: IC50 on Thromboxane A2 Synthesis. How it is done:
Rabbit platelet-rich plasma (PRP, 6×10^8 platelets/ml) and the test compound was pre-incubated at 37° C. for 5 minutes and, after adding collagen to the mixture at a concentration of 13 ug/ml, the resulting mixture was incubated at 37° C. for 5 minutes. Then, the reaction was terminated by rendering the mixture […] with hydrochloric acid and the amount of thromboxane B2 produced was quantitatively determined by the radioimmunoassay.

The subject of data set [4] is platelet aggregation (arachidonic acid), rabbit platelet-rich plasma. Put plainly: Inhibition of Platelet Aggregation induced by arachidonic acid. It counts as cell-based. The following applies: for IC50: Oryctolagus cuniculus, Platelet, rabbit PRP, arachidonic acid 100 ug/ml, 37° C.; for inhibitory activity on platelet aggregation induced by arachidonic acid (in words): conclusion in words. How it is done:
(§2) Rabbit platelet-rich plasma was pre-incubated at 37° C. for 1 minute and, after adding the test compound, arachidonic acid or collagen was added thereto at a concentration of 100 ug/ml or 10 ug/ml, respectively. The aggregation of platelets was recorded using an aggregometer and shown in Table 2 in terms of IC50 value.

In data set [5] the test system is platelet aggregation (collagen), rabbit platelet-rich plasma. In words: Inhibition of Platelet Aggregation induced by collagen. The class given is cell-based. The note with it: for IC50: Oryctolagus cuniculus, Platelet, rabbit PRP, collagen 10 ug/ml, 37° C.; for inhibitory activity on platelet aggregation induced by collagen (in words): conclusion in words. As to the method: as §2

The nature of data set [6]: Acute Toxicity. It counts as in vivo. The following applies: mouse, in vivo, ip; ddY male mice; i.p.; mortality one week after administration; Behrens-Karber method. How it is done: as §1
Setting [7] is: rabbit PRP, 6×10^8 platelets/ml, collagen 13 ug/ml, 37° C., 5 minutes.

Structures can show the parent of a compound that is named as a salt. Where two headings read alike, the source gives them in different places.

Take `CCCCCCCCCn1ccnc1` [Compound A, Nonylimidazole, reference compound]: in data set [1], the “% Protection” value is 50% and the “Ratio of Mortality/Total Number” value is 5/10. In addition, in data set [2], the LD50 amounted to 59 mg/kg.
`Cl.O=C(O)c1ccc(OCCn2ccnc2)cc1` [Compound B, 4-(2-Imidazol-1-ylethoxy)benzoic acid hydrochloride, reference compound]: in data set [3], the IC50 is 5.7 µM. For the same compound, in data set [4], the IC50 was greater than 1000 µM and the “inhibitory activity on platelet aggregation induced by arachidonic acid (in words)” value is “very weak inhibitory activity”. In data set [5], the IC50 was found to be 400 µM and the “inhibitory activity on platelet aggregation induced by collagen (in words)” value was “very weak inhibitory activity”.
As for `CC(=Cc1ccc(Cc2cccnc2)cc1)C(=O)O.Cl` [Compound C, 2-Methyl-3-[4-(3-pyridylmethyl)phenyl]propenoic acid hydrochloride, reference compound], the IC50 in data set [3] (setting [7]) came out at 0.22 µM. In addition, in data set [4], the IC50 is greater than 1000 µM and the “inhibitory activity on platelet aggregation induced by arachidonic acid (in words)” value was “very weak inhibitory activity”. Moreover, in data set [5], the IC50 is 420 µM and the “inhibitory activity on platelet aggregation induced by collagen (in words)” value is on record as “very weak inhibitory activity”. The LD50 at 168 h in data set [6] came out at 220 mg/kg.
Turning to `CC(=Cc1ccc(Oc2cccnc2)cc1)C(=O)O.Cl` [Compound D, 2-Methyl-3-[4-(3-pyridyloxy)phenyl]propenoic acid hydrochloride], in data set [1], the “% Protection” value was determined as 100%, the “Ratio of Mortality/Total Number” value is given as 0/10 and the “protection against the arachidonic acid-induced sudden death in rabbits (in words)” value is “strong protection”. Also, in data set [3] (setting [7]), the IC50 is 1 µM. In data set [5], this compound had an IC50 of 36 µM. The compound also came in with an LD50 at 168 h in data set [6] of 350 mg/kg.
Take `CC(=Cc1ccc(Oc2cccnc2)cc1)C(=O)NC1CCCCC1.Cl` [Compound E, N-Cyclohexyl-2-methyl-3-[4-(3-pyridyloxy)phenyl]propenamide hydrochloride]: in data set [1], the “% Protection” value was found to be 75%. The “Ratio of Mortality/Total Number” value in data set [1] was 2/8. Besides, the “protection against the arachidonic acid-induced sudden death in rabbits (in words)” value in data set [1] is listed as “strong protection”. Moreover, the IC50 in data set [3] (setting [7]) turned out to be 5.9 µM; in data set [4] it was 31 µM; in data set [5], 47 µM. In data set [6], this compound came in with an LD50 at 168 h of 210 mg/kg.
As for `CC(=Cc1ccc(Sc2ccncc2)cc1)C(=O)O` [Compound F, 2-Methyl-3-[4-(4-pyridylthio)phenyl]propenoic acid hydrochloride], the results for the IC50 in data set [3] (setting [7]) and in data set [5] were 0.31 µM and 22 µM, respectively.
On to `CC(=Cc1ccc(Oc2cccnc2)cc1)C(N)=O.Cl` [Compound G, 2-Methyl-3-[4-(3-pyridyloxy)phenyl]propenamide hydrochloride], for which the IC50 in data set [3] (setting [7]) was 0.56 µM; in data set [4], 335 µM; in data set [5] it was 56 µM. The LD50 at 168 h in data set [6] was determined as 310 mg/kg.
